According to ChEMBL document CHEMBL4196140, “Spiro-Phthalides and Isocoumarins Isolated from the Marine-Sponge-Derived Fungus Setosphaeria sp. SCSIO41009” (J Nat Prod, 2018):
Calls of active or inactive are those of the source. No cut-off for these calls is given here.

Test system: Influenza A virus
Experiment: Antiviral activity against Influenza A virus (A/Puerto Rico/8/34(H1N1)) harboring H274Y mutant infected in MDCK cells assessed as inhibition of virus-induced cytopathic effect after 48 hrs by MTT assay
Type: functional, organism-based
Details: A/Puerto Rico/8/1934(H1N1)

SMILES	inhibition
COCc1c(O)cc(C)c2c1Oc1c(C)cc(O)c(C)c1OC2=O	inactive
CCC[C@H]1C[C@H](O)[C@]2(OC(=O)c3c2cc(OC)c(OC)c3O)O1	inactive
COC(=O)CCCc1c(OC)cc(=O)oc1C	inactive
CCC[C@@H]1C[C@H]2OC(=O)c3c(cc(O)c(OC)c3O)[C@@H]2O1	inactive
CC[C@@H](O)[C@H]1C[C@H]2OC(=O)c3c(cc(OC)c(OC)c3O)[C@H]2O1	inactive
CCC(O)Cc1c(OC)cc(=O)oc1C (configuration not stated)	inactive
COc1cc2c(c(O)c1OC)C(=O)O[C@@H]1C[C@H](CCC(=O)O)O[C@H]21	inactive
CCCC(=O)CC[C@H]1OC(=O)c2c1cc(O)c(OC)c2O	inactive
CCCCc1c(OC)cc(=O)oc1C	inactive
CCCC(=O)CC[C@@H]1OC(=O)c2c1cc(OC)c(OC)c2O	inactive
CCC[C@H]1C[C@H](O)[C@@]2(OC(=O)c3c2cc(OC)c(OC)c3O)O1	inactive
CCC[C@H]1C[C@H]2OC(=O)c3c(cc(OC)c(OC)c3O)[C@@H]2O1	inactive
CCCCOCc1c(O)cc(C)c2c1Oc1c(C)cc(O)c(C)c1OC2=O	inactive
COc1cc2c(c(O)c1OC)C(=O)O[C@@H]1C[C@H](CCCO)O[C@H]21	inactive
COc1cc2c(c(O)c1OC)C(=O)O[C@@H]1C[C@H](C[C@@H](C)O)O[C@H]21	inactive
COc1cc(=O)oc(C)c1CCCC(=O)O	inactive
CCCCc1c(OC)cc(=O)oc1CO	inactive
COc1cc(=O)oc(C)c1CCC(C)O (configuration not stated)	inactive
CCC[C@H]1C[C@H]2OC(=O)c3c(cc(OC)c(O)c3O)[C@H]2O1	inactive
CC[C@H](O)[C@H]1C[C@H]2OC(=O)c3c(cc(OC)c(OC)c3O)[C@H]2O1	inactive
CCC[C@@H]1C[C@H]2OC(=O)c3c(cc(OC)c(OC)c3O)[C@@H]2O1	inactive
CCCCC1=C(OC)C(=O)OC1(C)O (racemic)	inactive
